In patent US10787446B2 (GENENTECH, INC., priority 2015, dated 2020):

Biological target: T1, hNav1.7 and the β1 subunit (Homo sapiens, UniProt Q15858)
T1 construct: expressed in transfected cells
Assay: Tritiated compound competitive binding to membranes from cells heterologously expressing hNav1.7 and the β1 subunit (LBA)
Conditions: competition with 100 pM [3H]compound, 18 h, room temperature; IC50 by 4 parameter logistic model
Summary of the method: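 Membranes were incubated 18 h at room temperature with 100 pM [3H]-labelled NaV1.7 inhibitor and increasing test compound in 100 mM NaCl, 20 mM Tris HCl, pH 7.4. Bound radioligand was filtered on PEI-soaked GF/C, washed, and counted by scintillation. IC50 from a 4-parameter logistic fit of % inhibition.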

T1 sequence (Q15858 whole entry): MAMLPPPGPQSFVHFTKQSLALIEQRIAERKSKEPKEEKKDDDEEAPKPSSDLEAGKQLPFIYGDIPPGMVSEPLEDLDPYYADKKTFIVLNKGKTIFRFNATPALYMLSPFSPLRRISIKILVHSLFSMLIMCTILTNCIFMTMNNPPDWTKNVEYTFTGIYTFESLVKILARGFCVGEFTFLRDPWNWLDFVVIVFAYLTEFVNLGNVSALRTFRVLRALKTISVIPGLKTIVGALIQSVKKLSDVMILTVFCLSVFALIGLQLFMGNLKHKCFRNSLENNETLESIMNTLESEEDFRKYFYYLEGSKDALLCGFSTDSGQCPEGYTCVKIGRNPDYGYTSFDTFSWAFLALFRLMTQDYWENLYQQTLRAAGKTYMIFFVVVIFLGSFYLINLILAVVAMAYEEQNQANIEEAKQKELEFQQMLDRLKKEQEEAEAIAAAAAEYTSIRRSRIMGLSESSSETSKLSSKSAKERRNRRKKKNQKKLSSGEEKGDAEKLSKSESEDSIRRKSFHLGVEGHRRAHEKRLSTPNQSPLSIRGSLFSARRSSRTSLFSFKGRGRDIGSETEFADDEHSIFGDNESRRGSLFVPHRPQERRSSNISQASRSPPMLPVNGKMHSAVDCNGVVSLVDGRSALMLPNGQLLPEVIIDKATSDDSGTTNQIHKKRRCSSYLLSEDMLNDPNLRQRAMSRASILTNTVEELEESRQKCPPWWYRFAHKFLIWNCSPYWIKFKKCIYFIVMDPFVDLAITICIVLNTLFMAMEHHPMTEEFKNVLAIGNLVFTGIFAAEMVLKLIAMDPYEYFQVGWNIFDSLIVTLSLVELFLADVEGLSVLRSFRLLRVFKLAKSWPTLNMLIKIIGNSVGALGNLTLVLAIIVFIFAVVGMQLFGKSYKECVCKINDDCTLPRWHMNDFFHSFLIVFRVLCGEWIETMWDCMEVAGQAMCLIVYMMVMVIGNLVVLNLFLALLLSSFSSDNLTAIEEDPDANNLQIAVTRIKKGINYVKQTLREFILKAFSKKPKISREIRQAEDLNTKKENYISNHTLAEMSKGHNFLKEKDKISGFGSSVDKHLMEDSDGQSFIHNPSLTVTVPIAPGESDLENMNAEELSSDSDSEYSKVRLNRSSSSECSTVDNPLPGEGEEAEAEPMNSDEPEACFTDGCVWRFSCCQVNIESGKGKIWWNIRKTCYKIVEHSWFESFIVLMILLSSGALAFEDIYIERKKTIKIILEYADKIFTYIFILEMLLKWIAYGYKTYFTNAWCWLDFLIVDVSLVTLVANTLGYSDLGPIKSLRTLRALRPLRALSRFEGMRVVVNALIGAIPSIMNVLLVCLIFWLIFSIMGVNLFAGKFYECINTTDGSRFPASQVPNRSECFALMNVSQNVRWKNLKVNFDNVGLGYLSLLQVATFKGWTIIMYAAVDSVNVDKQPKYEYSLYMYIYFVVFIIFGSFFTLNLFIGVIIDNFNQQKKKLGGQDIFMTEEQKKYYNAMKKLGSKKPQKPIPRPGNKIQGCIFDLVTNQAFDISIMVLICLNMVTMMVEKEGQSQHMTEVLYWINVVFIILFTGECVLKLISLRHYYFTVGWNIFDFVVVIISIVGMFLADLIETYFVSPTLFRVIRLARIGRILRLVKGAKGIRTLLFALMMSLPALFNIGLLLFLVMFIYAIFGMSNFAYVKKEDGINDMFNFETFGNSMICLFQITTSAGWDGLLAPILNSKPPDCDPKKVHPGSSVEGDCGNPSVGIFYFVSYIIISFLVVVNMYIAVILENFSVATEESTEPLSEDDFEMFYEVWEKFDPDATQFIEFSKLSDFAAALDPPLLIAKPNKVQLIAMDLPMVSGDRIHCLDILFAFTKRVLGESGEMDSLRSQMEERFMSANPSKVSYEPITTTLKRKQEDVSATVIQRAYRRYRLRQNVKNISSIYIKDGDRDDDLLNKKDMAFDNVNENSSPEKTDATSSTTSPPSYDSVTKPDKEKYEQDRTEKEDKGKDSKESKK
T1 sequence (Q07699 19-218 partner): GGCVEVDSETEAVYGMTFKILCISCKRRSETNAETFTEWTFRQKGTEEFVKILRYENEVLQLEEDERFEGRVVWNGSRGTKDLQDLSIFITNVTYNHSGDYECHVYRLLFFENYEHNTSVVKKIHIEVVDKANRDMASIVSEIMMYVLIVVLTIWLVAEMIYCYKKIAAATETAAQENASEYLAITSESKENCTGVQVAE

Row | Structure (SMILES) | Nav1.7 (LBA) [µM]
1 | O=S(=O)(Nc1nccs1)c1cc2c(cc1F)[C@H](N1CC[C@@H](C(F)(F)F)C[C@H]1c1ccc(F)c(F)c1)CCO2 [Example 197, (R)-4-((2S,4R)-2-(3,4-difluorophenyl)-4-(trifluoromethyl)piperidin-1-yl)-6-fluoro-N-(thiazol-2-yl)chroman-7-sulfonamide] | 0.351
2 | O=S(=O)(Nc1nccs1)c1cc2c(cc1F)[C@@H](N1CC[C@@H](C(F)(F)F)C[C@H]1c1ccc(F)c(F)c1)CCO2 [Example 198, (S)-4-((2S,4R)-2-(3,4-difluorophenyl)-4-(trifluoromethyl)piperidin-1-yl)-6-fluoro-N-(thiazol-2-yl)chroman-7-sulfonamide] | 0.000649
3 | O=S(=O)(Nc1nccs1)c1cc2c(cc1F)[C@H](N1CC[C@@H](C(F)(F)F)C[C@H]1c1cn[nH]c1)CCO2 [Example 199, (R)-4-((2S,4R)-2-(1H-pyrazol-4-yl)-4-(trifluoromethyl)piperidin-1-yl)-6-fluoro-N-(thiazol-2-yl)chroman-7-sulfonamide] | 0.11
4 | Cn1cc([C@@H]2C[C@H](C(F)(F)F)CCN2[C@H]2CCOc3cc(S(=O)(=O)Nc4ncns4)ccc32)cn1 [Example 201, (S)-4-((2S,4R)-2-(1-methyl-1H-pyrazol-4-yl)-4-(trifluoromethyl)piperidin-1-yl)-N-(1,2,4-thiadiazol-5-yl)chroman-7-sulfonamide] | 0.0037
5 | Cc1cc([C@@H]2C[C@H](C(F)(F)F)CCN2[C@H]2CCOc3cc(S(=O)(=O)Nc4ncns4)ccc32)n(C)n1 [Example 203, (S)-4-((2S,4R)-2-(1,3-dimethyl-1H-pyrazol-5-yl)-4-(trifluoromethyl)piperidin-1-yl)-N-(1,2,4-thiadiazol-5-yl)chroman-7-sulfonamide] | 0.00824
6 | O=S(=O)(Nc1ncns1)c1ccc2c(c1)OCC[C@@H]2N1CC[C@@H](C(F)(F)F)C[C@H]1c1ccc(F)c(Cl)c1 [Example 204, (S)-4-((2S,4R)-2-(3-chloro-4-fluorophenyl)-4-(trifluoromethyl)piperidin-1-yl)-N-(1,2,4-thiadiazol-5-yl)chroman-7-sulfonamide] | 0.00398
7 | NC(=O)c1cccc([C@@H]2C[C@H](C(F)(F)F)CCN2[C@H]2CCOc3cc(S(=O)(=O)Nc4ncns4)ccc32)c1 [Example 205, 3-((2S,4R)-1-((S)-7-(N-(1,2,4-thiadiazol-5-yl)sulfamoyl)chroman-4-yl)-4-(trifluoromethyl)piperidin-2-yl)benzamide] | 0.000907
8 | Nc1cccc([C@@H]2C[C@H](C(F)(F)F)CCN2[C@H]2CCOc3cc(S(=O)(=O)Nc4nccs4)c(F)cc32)n1 [Example 206, (S)-4-((2S,4R)-2-(6-aminopyridin-2-yl)-4-(trifluoromethyl)piperidin-1-yl)-6-fluoro-N-(thiazol-2-yl)chroman-7-sulfonamide] | 0.000515
9 | O=S(=O)(Nc1ncns1)c1ccc2c(c1)OCC[C@@H]2NC(CCC(F)(F)F)c1ccccc1 (stereo partly drawn) [Example 207, (4S)—N-(1,2,4-thiadiazol-5-yl)-4-((4,4,4-trifluoro-1-phenylbutyl)amino)chroman-7-sulfonamide] | 0.039
10 | O=S(=O)(Nc1nccs1)c1cc2c(cc1F)[C@H](N1CC[C@H](C(F)(F)F)C[C@@H]1c1ccc(F)cc1)CCO2 [Example 209, (R)-6-fluoro-4-((2R,4S)-2-(4-fluorophenyl)-4-(trifluoromethyl)piperidin-1-yl)-N-(thiazol-2-yl)chromane-7-sulfonamide] | 0.0683
11 | O=S(=O)(Nc1nccs1)c1cc2c(cc1F)[C@H](N1CC[C@@H](C(F)(F)F)C[C@H]1c1ccn[nH]1)CCO2 [Example 210, (R)-4-((2S,4R)-2-(1H-pyrazol-5-yl)-4-(trifluoromethyl)piperidin-1-yl)-6-fluoro-N-(thiazol-2-yl)chromane-7-sulfonamide] | 0.0375
12 | O=S(=O)(Nc1nccs1)c1cc2c(cc1F)[C@@H](N1CC[C@H](C(F)(F)F)C[C@@H]1c1ccn[nH]1)CCO2 [Example 212, (S)-4-((2R,4S)-2-(1H-pyrazol-5-yl)-4-(trifluoromethyl)piperidin-1-yl)-6-fluoro-N-(thiazol-2-yl)chromane-7-sulfonamide] | 0.0033
13 | O=S(=O)(Nc1nccs1)c1cc2c(cc1F)[C@H](N1CC[C@H](C(F)(F)F)C[C@@H]1c1ccn[nH]1)CCO2 [Example 213, (R)-4-((2R,4S)-2-(1H-pyrazol-5-yl)-4-(trifluoromethyl)piperidin-1-yl)-6-fluoro-N-(thiazol-2-yl)chromane-7-sulfonamide] | 0.0274
14 | O=S(=O)(Nc1nccs1)c1cc2c(cc1F)[C@H](N1CC[C@@H](C(F)(F)F)C[C@H]1c1ccc(F)cc1)CCO2 [Example 214, (R)-6-fluoro-4-((2S,4R)-2-(4-fluorophenyl)-4-(trifluoromethyl)piperidin-1-yl)-N-(thiazol-2-yl)chromane-7-sulfonamide] | 0.00144
15 | O=S(=O)(Nc1nccs1)c1cc2c(cc1F)[C@@H](N1CC[C@H](C(F)(F)F)C[C@@H]1c1ccc(F)cc1)CCO2 [Example 215, (S)-6-fluoro-4-((2R,4S)-2-(4-fluorophenyl)-4-(trifluoromethyl)piperidin-1-yl)-N-(thiazol-2-yl)chromane-7-sulfonamide] | 0.633
16 | CC(C)(C)OC(=O)N1CCN([C@@H]2CCOc3cc(S(=O)(=O)Nc4ncns4)ccc32)[C@H](c2ccc(F)cc2)C1 [Example 216, Tert-butyl (R)-4-((R)-7-(N-(1,2,4-thiadiazol-5-yl)sulfamoyl)chroman-4-yl)-3-(4-fluorophenyl)piperazine-1-carboxylate] | 0.213
17 | CC(C)(C)OC(=O)N1CCN([C@H]2CCOc3cc(S(=O)(=O)Nc4ncns4)ccc32)[C@H](c2ccc(F)cc2)C1 [Example 217, tert-butyl (R)-4-((S)-7-(N-(1,2,4-thiadiazol-5-yl)sulfamoyl)chroman-4-yl)-3-(4-fluorophenyl)piperazine-1-carboxylate] | 0.0183
18 | O=S(=O)(Nc1ncns1)c1ccc2c(c1)OCC[C@@H]2N1CCNC[C@H]1c1ccc(F)cc1 [Example 218, (S)-4-((R)-2-(4-fluorophenyl)piperazin-1-yl)-N-(1,2,4-thiadiazol-5-yl)chromane-7-sulfonamide] | 0.0941
19 | O=S(=O)(Nc1ncns1)c1ccc2c(c1)OCC[C@@H]2N1CCN(CC(F)(F)F)C[C@H]1c1ccc(F)cc1 [Example 219, (S)-4-((R)-2-(4-fluorophenyl)-4-(2,2,2-trifluoroethyl)piperazin-1-yl)-N-(1,2,4-thiadiazol-5-yl)chromane-7-sulfonamide] | 0.00778
20 | O=S(=O)(Nc1ncns1)c1ccc2c(c1)OCC[C@H]2N1CCN(CC(F)(F)F)C[C@H]1c1ccc(F)cc1 [Example 220, (R)-4-((R)-2-(4-fluorophenyl)-4-(2,2,2-trifluoroethyl)piperazin-1-yl)-N-(1,2,4-thiadiazol-5-yl)chromane-7-sulfonamide] | 0.0494
21 | CN1CCN([C@H]2CCOc3cc(S(=O)(=O)Nc4ncns4)ccc32)[C@H](c2ccc(F)cc2)C1 [Example 221, (S)-4-((R)-2-(4-fluorophenyl)-4-methylpiperazin-1-yl)-N-(1,2,4-thiadiazol-5-yl)chromane-7-sulfonamide] | 0.223
22 | O=S(=O)(Nc1ncns1)c1ccc2c(c1)OCC[C@@H]2N1CCN(CC(F)F)C[C@H]1c1ccc(F)cc1 [Example 222, (S)-4-((R)-4-(2,2-difluoroethyl)-2-(4-fluorophenyl)piperazin-1-yl)-N-(1,2,4-thiadiazol-5-yl)chromane-7-sulfonamide] | 0.0262
23 | O=S(=O)(Nc1ncns1)c1ccc2c(c1)OCC[C@@H]2N1CCN(CCF)C[C@H]1c1ccc(F)cc1 [Example 223, (S)-4-((R)-4-(2-fluoroethyl)-2-(4-fluorophenyl)piperazin-1-yl)-N-(1,2,4-thiadiazol-5-yl)chromane-7-sulfonamide] | 0.125
24 | CCN1CCN([C@H]2CCOc3cc(S(=O)(=O)Nc4ncns4)ccc32)[C@H](c2ccc(F)cc2)C1 [Example 224, (S)-4-((R)-4-ethyl-2-(4-fluorophenyl)piperazin-1-yl)-N-(1,2,4-thiadiazol-5-yl)chromane-7-sulfonamide] | 0.174
25 | O=S(=O)(Nc1ncns1)c1ccc2c(c1)OCC[C@@H]2N1CCN(S(=O)(=O)C(F)(F)F)C[C@H]1c1ccc(F)cc1 [Example 225, (S)-4-((R)-2-(4-fluorophenyl)-4-((trifluoromethyl)sulfonyl)piperazin-1-yl)-N-(1,2,4-thiadiazol-5-yl)chromane-7-sulfonamide] | 0.0057
26 | CS(=O)(=O)N1CCN([C@H]2CCOc3cc(S(=O)(=O)Nc4ncns4)ccc32)[C@H](c2ccc(F)cc2)C1 [Example 226, (S)-4-((R)-2-(4-fluorophenyl)-4-(methylsulfonyl)piperazin-1-yl)-N-(1,2,4-thiadiazol-5-yl)chromane-7-sulfonamide] | 0.0305
27 | O=S(=O)(Nc1nncs1)c1cc2c(cc1F)[C@@H](N1CC[C@@H](C(F)(F)F)C[C@H]1c1ccc(F)cc1)CCO2 [Example 231, (S)-6-fluoro-4-((2S,4R)-2-(4-fluorophenyl)-4-(trifluoromethyl)piperidin-1-yl)-N-(1,3,4-thiadiazol-2-yl)chroman-7-sulfonamide] | 0.00495
